These results are taken from patent US9624239B2, “Protein kinase inhibitors” (Pharmascience Inc., priority 2011, dated 2017).

The target of experiment [1] is T1, histidine tagged recombinant human full-length Bruton Agammaglobulinemia Tyrosine Kinase (Btk) (Homo sapiens, UniProt Q06187).
T1 construct: recombinant human full-length Bruton Agammaglobulinemia Tyrosine Kinase (Btk); histidine tag
As to the kind of experiment: Btk kinase inhibition assay (fluorescence polarization, KinEASE FP Fluorescein Green). Type of experiment: biochemical. To be noted: 10 μM ATP, 250 μM substrate, 60 minutes, room temperature; Ki from IC50 by Cheng-Prusoff; read-out: ki50 (nM), Inhibition of Btk. On the procedure: (§1) Kinase Binding Btk and Lck Kinase Inhibition Assay
(§2) Fluorescence polarization-based kinase assays were performed in 384 well-plate format using histidine tagged recombinant human full-length Bruton Agammaglobulinemia Tyrosine Kinase (Btk) or histidine tagged recombinant Human Lymphocyte-Specific Protein Tyrosine Kinase (Lck) and a modified protocol of the KinEASE™ FP Fluorescein Green Assay supplied from Millipore. Kinase reaction were performed at room temperature for 60 minutes in presence of 250 μM substrate, 10 μM ATP and variable test article concentrations. The reaction was stopped with EDTA/kinease detection reagents and the polarization measured on a Tecan 500 instrument. From the dose-response curve obtained, the IC50 was calculated using Graph Pad Prisms® using a non-linear fit curve. The Km for ATP on each enzyme was experimentally determined and the Ki values calculated using the Cheng-Prusoff equation (see: Cheng Y, Prusoff W H. (1973) Relationship between the inhibition constant (K1) and the concentration of inhibitor which causes 50 percent inhibition (I50) of an enzymatic reaction”. Biochem Pharmacol 22 (23): 3099-108).
(§3) ki values are reported in Tables 2 and 3: • a—Less than 100 nM; b—less than 1000 nM; c—more than 1000 nM

The target of experiment [2] is T2, histidine tagged recombinant Human Lymphocyte-Specific Protein Tyrosine Kinase (Lck) (Homo sapiens, UniProt P06239).
T2 construct: histidine tag
T2 sequence (P06239 whole entry): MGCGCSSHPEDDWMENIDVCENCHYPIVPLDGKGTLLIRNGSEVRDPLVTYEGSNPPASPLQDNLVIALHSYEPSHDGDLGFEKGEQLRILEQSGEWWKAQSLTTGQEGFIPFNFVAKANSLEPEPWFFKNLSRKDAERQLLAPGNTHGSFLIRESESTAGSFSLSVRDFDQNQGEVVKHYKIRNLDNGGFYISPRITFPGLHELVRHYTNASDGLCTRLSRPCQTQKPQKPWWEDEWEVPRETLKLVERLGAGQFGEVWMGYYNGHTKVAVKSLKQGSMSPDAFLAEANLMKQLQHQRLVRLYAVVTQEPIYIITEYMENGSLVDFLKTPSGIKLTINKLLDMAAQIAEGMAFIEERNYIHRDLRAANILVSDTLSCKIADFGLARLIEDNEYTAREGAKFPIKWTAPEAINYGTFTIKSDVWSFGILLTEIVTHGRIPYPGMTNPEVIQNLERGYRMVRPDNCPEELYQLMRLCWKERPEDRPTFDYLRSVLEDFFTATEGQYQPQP
As to the kind of experiment: Lck kinase inhibition assay (fluorescence polarization, KinEASE FP Fluorescein Green). Type of experiment: biochemical. Particulars: 10 μM ATP, 250 μM substrate, 60 minutes, room temperature; Ki from IC50 by Cheng-Prusoff. On the procedure: as §1, §2, §3

Another experiment relates to mouse splenocytes. As to the kind of experiment: Splenic cell proliferation assay (anti-IgM stimulated B cell proliferation, Cell Titer-Glo). Type of experiment: cell-based. To be noted: Splenocyte; CD1 mouse splenocytes, 1 h pre-treatment, 2.5 ug/ml anti-IgM F(ab')2 for 72 h; read-out: EC50 (nM), Inhibition of splenic cell proliferation. On the procedure: Splenic Cell Proliferation Assay
Splenocytes were obtained from 6 week old male CD1 mice (Charles River Laboratories Inc.). Mouse spleens were manually disrupted in PBS and filtered using a 70 μm cell strainer followed by ammonium chloride red blood cell lysis. Cells were washed, resuspended in Splenocyte Medium (HyClone RPMI supplemented with 10% heat-inactivated FBS, 0.5× non-essential amino acids, 10 mM HEPES, 50 uM beta mercaptoethanol) and incubated at 37° C., 5% CO2 for 2 h to remove adherent cells. Suspension cells were seeded in 96 well plates at 50,000 cells per well and incubated at 37° C., 5% CO2 for 1 h. Splenocytes were pre-treated in triplicate with 10,000 nM curves of Formula 1 compounds for 1 h, followed by stimulation of B cell proliferation with 2.5 ug/ml anti-IgM F(ab′)2 (Jackson ImmunoResearch) for 72 h. Cell proliferation was measured by Cell Titer-Glo Luminescent Assay (Promega). EC50 values (50% proliferation in the presence of compound as compared to vehicle treated controls) were calculated from dose response compound curves using GraphPad Prism Software.
EC50 values are reported in Table 4: • a—Less than 100 nM; b—less than 1000 nM; c—more than 1000 nM

T1 sequence (Q06187 whole entry): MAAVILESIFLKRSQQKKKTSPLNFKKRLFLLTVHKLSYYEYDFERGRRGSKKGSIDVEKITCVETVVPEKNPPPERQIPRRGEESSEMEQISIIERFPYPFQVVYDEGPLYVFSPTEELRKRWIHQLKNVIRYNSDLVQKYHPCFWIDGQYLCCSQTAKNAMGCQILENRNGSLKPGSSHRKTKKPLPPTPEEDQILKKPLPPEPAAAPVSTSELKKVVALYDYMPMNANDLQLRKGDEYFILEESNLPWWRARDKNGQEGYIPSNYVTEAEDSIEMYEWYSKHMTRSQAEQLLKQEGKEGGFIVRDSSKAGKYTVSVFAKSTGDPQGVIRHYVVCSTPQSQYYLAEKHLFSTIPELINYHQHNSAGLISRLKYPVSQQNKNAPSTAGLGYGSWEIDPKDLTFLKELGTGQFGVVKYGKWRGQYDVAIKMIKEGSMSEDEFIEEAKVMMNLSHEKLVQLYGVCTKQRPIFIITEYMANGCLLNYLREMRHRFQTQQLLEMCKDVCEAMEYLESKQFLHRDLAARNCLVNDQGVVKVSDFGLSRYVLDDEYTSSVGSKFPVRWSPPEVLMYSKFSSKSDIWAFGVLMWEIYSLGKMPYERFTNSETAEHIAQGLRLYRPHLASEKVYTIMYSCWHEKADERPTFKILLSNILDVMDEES

Take `Nc1ncnc2c3c(n(-c4ccc(Oc5ccccc5)cc4)c12)CCC3` [Compound 1]: the values for the Ki in experiment [1] and in experiment [2] were less than 1000 nM and less than 100 nM, respectively. In the experiment with mouse splenocytes, the EC50 was more than 1000 nM.
In the same order, the values of `Nc1ncnc2c3c(n(-c4ccc(Oc5ccc(F)cc5)cc4)c12)CCC3` [Compound 2] are more than 1000 nM, more than 1000 nM and more than 1000 nM.
For `Nc1ncnc2c3c(n(-c4ccc(Oc5ccc(Br)cc5)cc4)c12)CCC3` [Compound 3], the Ki in experiment [1] and in experiment [2] was less than 1000 nM in each case. In the experiment with mouse splenocytes, the EC50 is more than 1000 nM.
Consider `Nc1ncnc2c3c(n(-c4ccc(Oc5ccc(Cl)cc5)cc4)c12)CCC3` [Compound 4], for which the Ki in experiment [1] and in experiment [2] was less than 1000 nM throughout. Also, the EC50 in the experiment with mouse splenocytes was more than 1000 nM.
As to `Nc1ncnc2c3c(n(-c4ccc(Oc5ccccc5)cc4)c12)CNC3` [Compound 7], the Ki is more than 1000 nM in experiment [1] and less than 1000 nM in experiment [2]. Further, the EC50 with mouse splenocytes is more than 1000 nM.
In the case of `Nc1ncnc2c3c(n(-c4ccc(Oc5ccccc5)cc4)c12)CCNC3` [Compound 8], the Ki in experiment [1] was more than 1000 nM; in experiment [2], less than 1000 nM.
In the same order, the values of `Nc1ncnc2c3c(n(-c4ccc(Oc5ccccc5)cc4)c12)CN(S(=O)(=O)c1ccccc1)C3` [Compound 9] are more than 1000 nM and less than 1000 nM.
With `Nc1ncnc2c3c(n(-c4ccc(Oc5ccccc5)cc4)c12)CCCC3` [Compound 13], the Ki in experiment [1] and in experiment [2] was less than 1000 nM in each case. Besides, the EC50 with mouse splenocytes was more than 1000 nM.
In the case of `CCN1Cc2c(n(-c3ccc(Oc4ccccc4)cc3)c3c(N)ncnc23)C1` [Compound 14], the figures for the Ki in experiment [1] and in experiment [2] were more than 1000 nM and less than 1000 nM, respectively. Moreover, the EC50 with mouse splenocytes is more than 1000 nM.
Regarding `CCN1CCc2c(c3ncnc(N)c3n2-c2ccc(Oc3ccccc3)cc2)C1` [Compound 15], the Ki in experiment [1] is more than 1000 nM; in experiment [2], less than 100 nM.
The like results for `Nc1ncnc2c3c(n(-c4ccc(Oc5ccccc5)cc4)c12)CN(C(=O)c1ccccc1)C3` [Compound 18] were, in that order, more than 1000 nM and less than 1000 nM.
`CC1OCc2c1c1ncnc(N)c1n2-c1ccc(Oc2ccccc2)cc1` (centres unmarked) [Compound 20]: the Ki in experiment [1] and in experiment [2] was less than 100 nM in each case. Also, the EC50 with mouse splenocytes lay in the range of 100 to 1000 nM.
With `Nc1ncnc2c3c(n(-c4ccc(Oc5ccccc5)cc4)c12)COC3` [Compound 21], the Ki in experiment [1] was less than 1000 nM; in experiment [2] it was less than 100 nM. Moreover, the EC50 with mouse splenocytes is more than 1000 nM.
With `Nc1ncnc2c3c(n(-c4ccc(Cc5ccccc5)cc4)c12)CCC3` [Compound 22], the Ki in experiment [1] is more than 1000 nM; in experiment [2], less than 100 nM.
As to `COc1cc(-n2c3c(c4ncnc(N)c42)CCC3)ccc1Oc1ccccc1` [Compound 23], the Ki in experiment [1] is less than 1000 nM; in experiment [2] it was less than 100 nM. The EC50 with mouse splenocytes is more than 1000 nM.
In the same order, the values of `CCC1OCc2c1c1ncnc(N)c1n2-c1ccc(Oc2ccccc2)cc1` (centres unmarked) [Compound 24] are less than 1000 nM, less than 100 nM and 100 to 1000 nM.
In the same order, the values of `COc1cccc(Oc2ccc(-n3c4c(c5ncnc(N)c53)C(C)OC4)cc2)c1` (centres unmarked) [Compound 25] are less than 100 nM, less than 100 nM and 100 to 1000 nM.
In the same order, the values of `Nc1ncnc2c3c(n(-c4ccc(Oc5ccccc5)cc4)c12)COC3CCCOCc1ccccc1` (centres unmarked) [Compound 26] are more than 1000 nM, less than 1000 nM and more than 1000 nM.
For `Nc1ncnc2c3c(n(-c4ccc(Oc5ccccc5)cc4)c12)COC3CCCO` (centres unmarked) [Compound 27], the Ki in experiment [1] was less than 1000 nM; in experiment [2], less than 100 nM. In addition, in the experiment on mouse splenocytes, the EC50 is more than 1000 nM.
The like results for `COc1ccccc1Oc1ccc(-n2c3c(c4ncnc(N)c42)C(C)OC3)cc1` (centres unmarked) [Compound 28] were, in that order, less than 1000 nM, less than 1000 nM and more than 1000 nM.
In the case of `CC1OCc2c1c1ncnc(N)c1n2-c1ccc(Oc2cccc(C(F)(F)F)c2)cc1` (centres unmarked) [Compound 29], the Ki in experiment [1] and in experiment [2] was less than 1000 nM throughout. Also, the EC50 with mouse splenocytes fell in the range of 100 to 1000 nM.
On to `Nc1ncnc2c3c(n(-c4ccc(Oc5ccccc5)cc4)c12)COC3c1ccccc1` (centres unmarked) [Compound 30], for which the Ki in experiment [1] was less than 100 nM; in experiment [2], less than 1000 nM. Also, the EC50 in the experiment with mouse splenocytes was more than 1000 nM.
Regarding `CC1OCc2c1c1ncnc(N)c1n2-c1ccc(Oc2cccc(Cl)c2)cc1` (centres unmarked) [Compound 31], the Ki in experiment [1] was less than 1000 nM; in experiment [2], less than 100 nM. For the same compound, the EC50 with mouse splenocytes was 100 to 1000 nM.
In the same order, the values of `CC1OCc2c1c1ncnc(N)c1n2-c1ccc(Oc2ccccc2C(F)(F)F)cc1` (centres unmarked) [Compound 32] are less than 1000 nM, less than 1000 nM and 100 to 1000 nM.
For the compound `CC1OCc2c1c1ncnc(N)c1n2-c1ccc(Oc2ccccc2Cl)cc1` (centres unmarked) [Compound 33], the Ki in experiment [1] was less than 1000 nM; in experiment [2], less than 100 nM. In addition, in the experiment on mouse splenocytes, the EC50 was in the range of 100 to 1000 nM.
In the same order, the values of `CC1OCc2c1c1ncnc(N)c1n2-c1ccc(Oc2ccccc2F)cc1` (centres unmarked) [Compound 34] are less than 100 nM, less than 100 nM and more than 1000 nM.
As to `CC1OCc2c1c1ncnc(N)c1n2-c1ccc(Oc2cccc(F)c2)cc1` (centres unmarked) [Compound 35], the Ki in experiment [1] and in experiment [2] was less than 1000 nM each time. Further, the EC50 with mouse splenocytes was more than 1000 nM.
For the compound `Nc1ncnc2c3c(n(-c4ccc(Oc5ccccc5)cc4)c12)COC3CCCOc1ccccc1` (centres unmarked) [Compound 36], the Ki is more than 1000 nM in experiment [1] and less than 1000 nM in experiment [2]. In addition, in the experiment with mouse splenocytes, the EC50 was more than 1000 nM.
As for `CC1OCc2c1c1ncnc(N)c1n2-c1ccc(Oc2cccc(C#N)c2)cc1` (centres unmarked) [Compound 37], the Ki in experiment [1] and in experiment [2] was more than 1000 nM each time. In the experiment with mouse splenocytes, the EC50 was more than 1000 nM.
With `CC1OCc2c1c1ncnc(N)c1n2-c1ccc(Oc2cccc(C(N)=O)c2)cc1` (centres unmarked) [Compound 38], the Ki in experiment [1] and in experiment [2] was more than 1000 nM throughout. The EC50 with mouse splenocytes is more than 1000 nM.
As to `CC1OCc2c1c1ncnc(N)c1n2-c1ccc(Oc2ccccc2)c(Cl)c1` (centres unmarked) [Compound 39], the Ki was less than 1000 nM in experiment [1] and less than 100 nM in experiment [2]. Also, in the experiment on mouse splenocytes, the EC50 was more than 1000 nM.
In the same order, the values of `CC1OCc2c1c1ncnc(N)c1n2-c1ccc(Oc2ccccc2)c(F)c1` (centres unmarked) [Compound 40] are less than 1000 nM, less than 100 nM and 100 to 1000 nM.
In the case of `CCOc1cccc(Oc2ccc(-n3c4c(c5ncnc(N)c53)C(C)OC4)cc2)c1` (centres unmarked) [Compound 41], the Ki in experiment [1] and in experiment [2] was less than 100 nM in each case. Also, the EC50 in the experiment with mouse splenocytes lay in the range of 100 to 1000 nM.
As for `CC1OCc2c1c1ncnc(N)c1n2-c1ccc(Oc2ccc(F)cc2)cc1` (centres unmarked) [Compound 42], the Ki in experiment [1] is more than 1000 nM; in experiment [2], less than 1000 nM. Also, the EC50 with mouse splenocytes is more than 1000 nM.
With `CC1OCc2c1c1ncnc(N)c1n2-c1ccc(Oc2cccc(OCc3ccccc3)c2)cc1` (centres unmarked) [Compound 43], the Ki in experiment [1] and in experiment [2] was less than 100 nM each time. Besides, the EC50 in the experiment on mouse splenocytes lay within 100 to 1000 nM.
`CC1OCc2c1c1ncnc(N)c1n2-c1ccc(Oc2cccc(O)c2)cc1` (centres unmarked) [Compound 44]: the Ki in experiment [1] and in experiment [2] was less than 100 nM in each case. In the experiment with mouse splenocytes, the EC50 was more than 1000 nM.
With `CC1OCc2c1c1ncnc(N)c1n2-c1ccc(Oc2cccc([N+](=O)[O-])c2)cc1` (centres unmarked) [Compound 45], the figures for the Ki in experiment [1] and in experiment [2] were more than 1000 nM and less than 1000 nM, respectively. Further, the EC50 in the experiment on mouse splenocytes is more than 1000 nM.
For `CC1OCc2c1c1ncnc(N)c1n2-c1ccc(Oc2cccc(OCC#N)c2)cc1` (centres unmarked) [Compound 46], the Ki in experiment [1] and in experiment [2] was less than 100 nM in each case. Also, the EC50 in the experiment on mouse splenocytes is 100 to 1000 nM.
For the compound `N#Cc1ccccc1COc1cccc(Oc2ccc(-n3c4c(c5ncnc(N)c53)COC4)cc2)c1` [Compound 143], the Ki in experiment [1] is less than 100 nM. The EC50 in the experiment on mouse splenocytes fell in the range of 100 to 1000 nM.
In the same order, the values of `N#Cc1ccccc1OCc1cccc(Oc2ccc(-n3c4c(c5ncnc(N)c53)CCC4)cc2)c1` [Compound 144] are less than 100 nM and 100 to 1000 nM.
